Laboratory results: publication PMC4907692, “Engineering vanilloid-sensitivity into the rat TRPV2 channel” (eLife, 2016)
Values joined by “and” are separate entries in the source; they are usually repeats but may differ in a detail not shown here. Equal entries are not always repeated.

Molecular target: T1, full-length 1D4-tagged TRPV1 (Rattus norvegicus, UniProt O35433)
T1 construct: made in house; host or cells: S. cerevisiae BJ5457, YEpHIS vector, PMA1 promoter; isolated membranes
Test: 3H-RTx binding to S. cerevisiae membranes containing 1D4-tagged TRPV1
Settings: for Hill slope (nH): membranes
Excerpt: The polymodal activation of TRPV1 has been widely conceptualized using allosteric models wherein binding of activators (such as vanilloids, protons, DkTx or voltage) are allosterically coupled to opening of the pore ([Brauchi et al., 2004]; [Jara-Oseguera et al., 2016]; [Matta and Ahern, 2007]). The allosteric nature of these interactions has begun to be explored using electrophysiological measurements of channel function ([Jara-Oseguera et al., 2016]; [Yao et al., 2010]), but has thus far not been investigated biochemically. We therefore tested whether binding of DkTx can enhance the affinity of TRPV1 for RTx, which would be predicted by an allosteric model wherein the two activators promote opening by binding more tightly to the open state. For these experiments we used a 1D4-tagged TRPV1 construct where expression in S. cerevisiae was driven by a constitutive promoter and we performed binding assays on yeast membranes where the vanilloid would have free access to the channel protein (see Methods). Under these conditions, we measured a Kd for RTx binding to 1D4-tagged TRPV1 of 0.6 nM under control conditions, about ten fold higher affinity than what we measured in intact cells using GFP-tagged TRPV1. When we measured the concentration-dependence of RTx binding to 1D4-tagged TRPV1 in the presence of DkTx, we observed that the tarantula toxin enhanced the affinity for RTx by about 3-fold (Figure 2A). The effects of DkTx were concentration-dependent (Figure 2B) and were observed independent of whether the binding assay was performed at 37°C (our standard temperature) or at 30°C (Figure 2A).
The full-length TRPV1 and TRPV2 channels with 1D4 affinity tags (TETSQVAPA) on their C-termini were cloned into the YEpHIS vector and expressed in the BJ5457 strain of S. cerevisiae using the strong constitutively active PMA1 promoter, as previously described ([Moiseenkova-Bell et al., 2008]). After 48 hr of expression at 30°C in YPD media, cells were harvested by centrifugation and re-suspended in PBS buffer, supplemented with complete protease inhibitor cocktail (Roche, Indianapolis, IN) and 4-amidinophenylmethanesulfonyl fluoride hydrochloride (APMSF) (Sigma-Aldrich, St. Louis, MO). Cells were broken by passing through an Avestin homogenizer at the pressure of 35 kpsi, cell lysate was cleared by centrifugation at 8,000 g for 15 min and membranes were isolated by ultracentrifugation at 190,000 g for 1 hr. Membrane pellets were re-suspended in PBS buffer supplemented with protease inhibitors and 200 mM sucrose, flash-frozen in liquid nitrogen and stored at -70°C until RTx binding measurements.
S. cerevisiae cells overexpressing TRPV1 constructs to be used in ligand binding assays on intact cells (Figure 1E,F) were grown as for small scale expression trials. 24 hr after protein induction cells were spun down at 4000g, the supernatant was removed and the pellet resuspended in 1x PBS, normalizing OD600 to 75 for each sample, and aliquoted for storage at -80°C. ^3H-RTx binding assays on cells were performed at 37°C as previously described ([Feng et al., 2015]), but where non-specific binding of RTx was measured using cells expressing GFP alone. The binding of RTx to TRPV1 and TRPV2 in membranes (e.g. Figure 2A,B and 5C) was performed at 37°C unless otherwise stated using membranes prepared from large scale protein preparations of S. cerevisiae containing rat TRPV1 and TRPV2 with a 1D4 tag expressed using a constitutive promoter as in [Moiseenkova-Bell et al., 2008]. Data for binding of RTx to membranes was corrected for non-specific binding, determined using either excess non-radioactive ligand or heat inactivation of the protein, as previously described ([Feng et al., 2015]). The TRPV1-activating double-knot toxin (DkTx) was produced recombinantly, folded in vitro and purified as previously described ([Bae et al., 2012]). Yeast membranes were incubated with DkTx solution for 1 hr at 4°C with gentle agitation prior to undertaking RTx binding assays. […]

T1 sequence (O35433 whole entry): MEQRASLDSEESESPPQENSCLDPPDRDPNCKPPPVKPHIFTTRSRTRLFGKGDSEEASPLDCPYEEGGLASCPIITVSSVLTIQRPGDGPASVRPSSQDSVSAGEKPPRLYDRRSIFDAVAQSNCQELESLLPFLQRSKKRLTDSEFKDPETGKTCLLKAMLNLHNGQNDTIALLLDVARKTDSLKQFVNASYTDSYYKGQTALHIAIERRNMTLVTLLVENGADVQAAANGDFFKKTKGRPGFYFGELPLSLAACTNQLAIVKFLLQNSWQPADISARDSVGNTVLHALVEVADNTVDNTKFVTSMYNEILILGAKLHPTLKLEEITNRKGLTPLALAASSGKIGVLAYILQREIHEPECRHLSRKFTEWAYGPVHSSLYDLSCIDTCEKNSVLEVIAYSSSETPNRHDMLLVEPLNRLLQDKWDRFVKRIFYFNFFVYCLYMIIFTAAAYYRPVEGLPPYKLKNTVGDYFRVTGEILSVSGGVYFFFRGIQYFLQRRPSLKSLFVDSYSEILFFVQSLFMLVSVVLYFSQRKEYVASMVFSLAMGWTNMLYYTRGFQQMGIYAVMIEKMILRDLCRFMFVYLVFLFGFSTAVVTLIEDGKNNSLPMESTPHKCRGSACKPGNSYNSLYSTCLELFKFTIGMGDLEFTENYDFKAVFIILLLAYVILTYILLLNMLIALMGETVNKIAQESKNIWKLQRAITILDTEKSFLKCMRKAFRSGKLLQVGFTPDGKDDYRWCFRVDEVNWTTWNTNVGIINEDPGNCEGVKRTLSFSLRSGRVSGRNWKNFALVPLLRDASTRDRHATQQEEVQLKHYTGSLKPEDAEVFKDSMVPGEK

C=C(C)[C@]12C[C@@H](C)[C@@]34O[C@](Cc5ccccc5)(O[C@@H]1[C@@H]3C=C(COC(=O)Cc1ccc(O)c(OC)c1)C[C@]1(O)C(=O)C(C)=C[C@@H]41)O2 [RTx, resiniferatoxin]
Kd (Kd of 3H-RTx binding (Hill fit)): 0.53 nM and 0.8 nM | Hill slope (nH) (control (no DkTx), 30°C): 1.1 | Hill slope (nH) (control (no DkTx), 37°C): 1.24 | Hill slope (nH) (in the presence of DkTx (0.7 µM), 30°C): 1 | Hill slope (nH) (in the presence of DkTx (0.7 µM), 37°C): 0.92
